In publication PMC5439695 (PLoS ONE, 2017):
Read-outs that look alike come from different tables or passages of the source.

Experiments:
HepG2 cells [1] = test: cells; settings: Homo sapiens
HEK293 cells [2] = settings: HEK293 glo
HepG2 cells [3] = test: CellTox Green Cytotoxicity Assay (flor) in HepG2, HepG2[flor]; format: cell-based, human; settings: HepG2 flor; for EC50: Homo sapiens, given as negative log-scale values;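 on hepg2 flor emax 0: percent activity versus DMSO-only wells with baseline rescaled to 0%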;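 on hepg2 flor emax 40: percent activity versus DMSO-only wells with baseline rescaled to 0%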
HEK293 cells [4] = test: cells; settings: Homo sapiens
[5] = tested on: HEK293 and HepG2 cell lines; settings: any activity in any time point/assay
HEK293 cells [6] = settings: HEK293 flor
HepG2 cells [7] = settings: HepG2 glo
HEK293 cells [8] = test: cells; settings: Homo sapiens; remark: listed apart in the source

## CC(C)=CCC/C(C)=C/CO [Geraniol]
HepG2 cells [1]; HepG2, read-out: hepg2_glo_ec50_0
  EC50: > 38.3 µM
HepG2 cells [1]; HepG2, read-out: hepg2_glo_ec50_8
  EC50: > 38.3 µM
HepG2 cells [1]; HepG2, read-out: hepg2_glo_ec50_16
  EC50: > 38.3 µM
HepG2 cells [1]; HepG2, read-out: hepg2_glo_ec50_24
  EC50: > 38.3 µM
HepG2 cells [1]; HepG2, read-out: hepg2_glo_ec50_32
  EC50: > 38.3 µM
HepG2 cells [1]; HepG2, read-out: hepg2_glo_ec50_40
  EC50: > 38.3 µM
HEK293 cells [2]
  hek293_glo_auc: 0
  hek293_glo_time: 48
HEK293 cells [2]; kinetics bin
  hek293_glo_bin: inactive
HEK293 cells [2]; time point 0
  hek293_glo_emax_0: 0
  hek293_glo_pod_0: -4.417
  hek293_glo_wauc_0: 0
HEK293 cells [2]; time point 8
  hek293_glo_emax_8: 0
  hek293_glo_pod_8: -4.417
  hek293_glo_wauc_8: 0
HEK293 cells [2]; time point 16
  hek293_glo_emax_16: 0
  hek293_glo_pod_16: -4.417
  hek293_glo_wauc_16: 0
HEK293 cells [2]; time point 24
  hek293_glo_emax_24: 0
  hek293_glo_pod_24: -4.417
  hek293_glo_wauc_24: 0
HEK293 cells [2]; time point 32
  hek293_glo_emax_32: 0
  hek293_glo_pod_32: -4.417
  hek293_glo_wauc_32: 0
HEK293 cells [2]; time point 40
  hek293_glo_emax_40: 0
  hek293_glo_pod_40: -4.417
  hek293_glo_wauc_40: 0
HepG2 cells [3]
  hepg2_flor_auc: 0
  hepg2_flor_time: 48
HepG2 cells [3]; kinetics bin
  hepg2_flor_bin: inactive
HepG2 cells [3]; time point 0
  hepg2_flor_emax_0: 0
  hepg2_flor_pod_0: -4.417
  hepg2_flor_wauc_0: 0
HepG2 cells [3]; time point 8
  hepg2_flor_emax_8: 0
  hepg2_flor_pod_8: -4.417
  hepg2_flor_wauc_8: 0
HepG2 cells [3]; time point 16
  hepg2_flor_emax_16: 0
  hepg2_flor_pod_16: -4.417
  hepg2_flor_wauc_16: 0
HepG2 cells [3]; time point 24
  hepg2_flor_emax_24: 0
  hepg2_flor_pod_24: -4.417
  hepg2_flor_wauc_24: 0
HepG2 cells [3]; time point 32
  hepg2_flor_emax_32: 0
  hepg2_flor_pod_32: -4.417
  hepg2_flor_wauc_32: 0
HepG2 cells [3]; time point 40
  hepg2_flor_emax_40: 0
  hepg2_flor_pod_40: -4.417
  hepg2_flor_wauc_40: 0
HepG2 cells [3]; time point 0, read-out: hepg2_flor_ec50_0
  EC50: > 38.3 µM
HepG2 cells [3]; time point 8, read-out: hepg2_flor_ec50_8
  EC50: > 38.3 µM
HepG2 cells [3]; time point 16, read-out: hepg2_flor_ec50_16
  EC50: > 38.3 µM
HepG2 cells [3]; time point 24, read-out: hepg2_flor_ec50_24
  EC50: > 38.3 µM
HepG2 cells [3]; time point 32, read-out: hepg2_flor_ec50_32
  EC50: > 38.3 µM
HepG2 cells [3]; time point 40, read-out: hepg2_flor_ec50_40
  EC50: > 38.3 µM
HEK293 cells [4]; HEK293, read-out: hek293_glo_ec50_0
  EC50: > 38.3 µM
HEK293 cells [4]; HEK293, read-out: hek293_glo_ec50_8
  EC50: > 38.3 µM
HEK293 cells [4]; HEK293, read-out: hek293_glo_ec50_16
  EC50: > 38.3 µM
HEK293 cells [4]; HEK293, read-out: hek293_glo_ec50_24
  EC50: > 38.3 µM
HEK293 cells [4]; HEK293, read-out: hek293_glo_ec50_32
  EC50: > 38.3 µM
HEK293 cells [4]; HEK293, read-out: hek293_glo_ec50_40
  EC50: > 38.3 µM
[5]
  information: 0
HEK293 cells [6]
  hek293_flor_auc: 0
  hek293_flor_time: 48
HEK293 cells [6]; kinetics bin
  hek293_flor_bin: inactive
HEK293 cells [6]; time point 0
  hek293_flor_emax_0: 0
  hek293_flor_pod_0: -4.417
  hek293_flor_wauc_0: 0
HEK293 cells [6]; time point 8
  hek293_flor_emax_8: 0
  hek293_flor_pod_8: -4.417
  hek293_flor_wauc_8: 0
HEK293 cells [6]; time point 16
  hek293_flor_emax_16: 0
  hek293_flor_pod_16: -4.417
  hek293_flor_wauc_16: 0
HEK293 cells [6]; time point 24
  hek293_flor_emax_24: 0
  hek293_flor_pod_24: -4.417
  hek293_flor_wauc_24: 0
HEK293 cells [6]; time point 32
  hek293_flor_emax_32: 0
  hek293_flor_pod_32: -4.417
  hek293_flor_wauc_32: 0
HEK293 cells [6]; time point 40
  hek293_flor_emax_40: 0
  hek293_flor_pod_40: -4.417
  hek293_flor_wauc_40: 0
HepG2 cells [7]
  hepg2_glo_auc: 0
  hepg2_glo_time: 48
HepG2 cells [7]; kinetics bin
  hepg2_glo_bin: inactive
HepG2 cells [7]; time point 0
  hepg2_glo_emax_0: 0
  hepg2_glo_pod_0: -4.417
  hepg2_glo_wauc_0: 0
HepG2 cells [7]; time point 8
  hepg2_glo_emax_8: 0
  hepg2_glo_pod_8: -4.417
  hepg2_glo_wauc_8: 0
HepG2 cells [7]; time point 16
  hepg2_glo_emax_16: 0
  hepg2_glo_pod_16: -4.417
  hepg2_glo_wauc_16: 0
HepG2 cells [7]; time point 24
  hepg2_glo_emax_24: 0
  hepg2_glo_pod_24: -4.417
  hepg2_glo_wauc_24: 0
HepG2 cells [7]; time point 32
  hepg2_glo_emax_32: 0
  hepg2_glo_pod_32: -4.417
  hepg2_glo_wauc_32: 0
HepG2 cells [7]; time point 40
  hepg2_glo_emax_40: 0
  hepg2_glo_pod_40: -4.417
  hepg2_glo_wauc_40: 0
HEK293 cells [8]; HEK293, read-out: hek293_flor_ec50_0
  EC50: > 38.3 µM
HEK293 cells [8]; HEK293, read-out: hek293_flor_ec50_8
  EC50: > 38.3 µM
HEK293 cells [8]; HEK293, read-out: hek293_flor_ec50_16
  EC50: > 38.3 µM
HEK293 cells [8]; HEK293, read-out: hek293_flor_ec50_24
  EC50: > 38.3 µM
HEK293 cells [8]; HEK293, read-out: hek293_flor_ec50_32
  EC50: > 38.3 µM
HEK293 cells [8]; HEK293, read-out: hek293_flor_ec50_40
  EC50: > 38.3 µM
